Test results reported in PubChem BioAssay AID180 (DTP/NCI, 2004).
“And” between values parts separate entries of the source, which are not always exact repeats. Identical values can stand only once.

Test system: BDF1 mice, Adenocarcinoma 755 s.c., tumor weight T/C
Test: NCI In Vivo Anticancer Drug Screen. Data for tumor model Adenocarcinoma 755 (subcutaneous) in B6D2F1 (BDF1) mice
Conditions: endpoint: mean tumor weight, schedule: Q01DX011 (ip), higher = larger tumour
Outline: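 Tumor-bearing mice receive test compound while controls get vehicle alone. Antitumor effect is scored from survival or tumor dimensions as a T/C quotient.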

[1] = dose: 25.0 mg/kg/injection, vehicle: carboxymethylcellulose (CMC)
[2] = dose: 100.0 mg/kg/injection, vehicle: carboxymethylcellulose (CMC)
[3] = dose: 30.0 mg/kg/injection, vehicle: carboxymethylcellulose (CMC)
[4] = dose: 120.0 mg/kg/injection, vehicle: carboxymethylcellulose (CMC)
[5] = dose: 100.0 mg/kg/injection, vehicle: water
[6] = dose: 200.0 mg/kg/injection, vehicle: water
[7] = dose: 125.0 mg/kg/injection, vehicle: carboxymethylcellulose (CMC)
[8] = dose: 250.0 mg/kg/injection, vehicle: carboxymethylcellulose (CMC)
[9] = dose: 500.0 mg/kg/injection, vehicle: carboxymethylcellulose (CMC)
[10] = dose: 60.0 mg/kg/injection, vehicle: carboxymethylcellulose (CMC)
[11] = dose: 2.5 mg/kg/injection, vehicle: carboxymethylcellulose (CMC)
[12] = dose: 240.0 mg/kg/injection, vehicle: carboxymethylcellulose (CMC)
[13] = dose: 31.25 mg/kg/injection, vehicle: methylcellulose (MC)
[14] = dose: 62.5 mg/kg/injection, vehicle: methylcellulose (MC)
[15] = dose: 10.0 mg/kg/injection, vehicle: methylcellulose (MC)
[16] = dose: 20.0 mg/kg/injection, vehicle: methylcellulose (MC)
[17] = dose: 125.0 mg/kg/injection, vehicle: methylcellulose (MC)

## CC(=O)Nc1c(Cl)cc2c(c1Cl)Cc1cc([N+](=O)[O-])ccc1-2
dose: 0.8 mg/kg/injection, vehicle: carboxymethylcellulose (CMC)
  T/C: 32 % of control
dose: 1.6 mg/kg/injection, vehicle: carboxymethylcellulose (CMC)
  T/C: 47 % of control
dose: 3.0 mg/kg/injection, vehicle: other
  T/C: 61 % of control
dose: 3.12 mg/kg/injection, vehicle: carboxymethylcellulose (CMC)
  T/C: 25 % of control
dose: 6.0 mg/kg/injection, vehicle: other
  T/C: 87 % of control
dose: 6.25 mg/kg/injection, vehicle: carboxymethylcellulose (CMC)
  T/C: 31 % of control and 33 % of control
dose: 6.25 mg/kg/injection, vehicle: other
  T/C: 59 % of control
dose: 12.5 mg/kg/injection, vehicle: carboxymethylcellulose (CMC)
  T/C: 15 % of control
dose: 12.5 mg/kg/injection, vehicle: other
  T/C: 22 % of control and 35 % of control
[1]
  T/C: 9 % of control
dose: 25.0 mg/kg/injection, vehicle: other
  T/C: 24 % of control and 45 % of control
dose: 50.0 mg/kg/injection, vehicle: carboxymethylcellulose (CMC)
  T/C: 9 % of control
dose: 50.0 mg/kg/injection, vehicle: other
  T/C: 31 % of control and 35 % of control
[2]
  T/C: 8 % of control
dose: 100.0 mg/kg/injection, vehicle: other
  T/C: 30 % of control
dose: 200.0 mg/kg/injection, vehicle: carboxymethylcellulose (CMC)
  T/C: 6 % of control and 25 % of control
dose: 200.0 mg/kg/injection, vehicle: other
  T/C: 26 % of control
dose: 300.0 mg/kg/injection, vehicle: carboxymethylcellulose (CMC)
  T/C: 6 % of control
dose: 400.0 mg/kg/injection, vehicle: other
  T/C: 20 % of control

## COc1cc(/C=N/Nc2nc3c([nH]2)c(=O)n(C)c(=O)n3C)ccc1O
[3]
  T/C: 91 % of control
[4]
  T/C: 119 % of control

## CC(C)=NOC(N)=O
[5]
  T/C: 122 % of control
[6]
  T/C: 106 % of control

## CCCCCn1cnc2c(=S)nc[nH]c21
dose: 31.0 mg/kg/injection, vehicle: carboxymethylcellulose (CMC)
  T/C: 94 % of control
dose: 62.0 mg/kg/injection, vehicle: carboxymethylcellulose (CMC)
  T/C: 78 % of control
[7]
  T/C: 43 % of control
[8]
  T/C: 10 % of control
[9]
  T/C: 6 % of control

## NC(=O)CSc1nc(N)nc2nc[nH]c12
dose: 63.0 mg/kg/injection, vehicle: carboxymethylcellulose (CMC)
  T/C: 113 % of control
[7]
  T/C: 67 % of control
[8]
  T/C: 48 % of control
[9]
  T/C: 33 % of control

## O=c1[nH]c(S(=O)(=O)F)nc2nc[nH]c12
[1]
  T/C: 104 % of control
dose: 75.0 mg/kg/injection, vehicle: carboxymethylcellulose (CMC)
  T/C: 53 % of control

## CN(C)c1nc(Cl)nc2c1nc(Cl)n2C1CCCCO1 (configuration not stated)
[3]
  T/C: 102 % of control
[10]
  T/C: 85 % of control
[4]
  T/C: 68 % of control

## CCSc1ncnc2nc[nH]c12
[11]
  T/C: 40 % of control
[2]
  T/C: 1 % of control

## CC(=O)OCC1OC(n2c(Br)nc3c(=O)[nH]c(N)nc32)C(OC(C)=O)C1OC(C)=O (configuration not stated)
[3]
  T/C: 95 % of control
[10]
  T/C: 119 % of control
[4]
  T/C: 90 % of control
[12]
  T/C: 82 % of control

## CCN(CC)C(=O)CSc1ncnc2nc[nH]c12
dose: 6.0 mg/kg/injection, vehicle: methylcellulose (MC)
  T/C: 91 % of control
dose: 25.0 mg/kg/injection, vehicle: methylcellulose (MC)
  T/C: 43 % of control
[13]
  T/C: 6 % of control
[14]
  T/C: 4 % of control

## C/C(=N\NC(=O)c1ccncc1)c1ccccc1Cl
dose: 30.0 mg/kg/injection, vehicle: methylcellulose (MC)
  T/C: 56 % of control
dose: 60.0 mg/kg/injection, vehicle: methylcellulose (MC)
  T/C: 61 % of control

## CN(C)N=Nc1ccc(-c2ccc(N=NN(C)C)cc2)cc1
dose: 17.5 mg/kg/injection, vehicle: other
  T/C: 92 % of control
dose: 31.2 mg/kg/injection, vehicle: other
  T/C: 56 % of control
dose: 35.0 mg/kg/injection, vehicle: other
  T/C: 72 % of control
dose: 50.0 mg/kg/injection, vehicle: water
  T/C: 70 % of control
dose: 62.5 mg/kg/injection, vehicle: other
  T/C: 46 % of control
dose: 70.0 mg/kg/injection, vehicle: other
  T/C: 75 % of control
[5]
  T/C: 39 % of control
dose: 125.0 mg/kg/injection, vehicle: other
  T/C: 32 % of control
dose: 140.0 mg/kg/injection, vehicle: other
  T/C: 40 % of control
dose: 150.0 mg/kg/injection, vehicle: water
  T/C: 46 % of control
[6]
  T/C: 61 % of control

## O=CNC(Cc1ccc(N(CCCl)CCCl)cc1)C(=O)O (configuration not stated)
dose: 1.25 mg/kg/injection, vehicle: carboxymethylcellulose (CMC)
  T/C: 94 % of control
dose: 1.25 mg/kg/injection, vehicle: saline
  T/C: 87 % of control
[11]
  T/C: 54 % of control
dose: 2.5 mg/kg/injection, vehicle: saline
  T/C: 91 % of control
dose: 5.0 mg/kg/injection, vehicle: carboxymethylcellulose (CMC)
  T/C: 31 % of control and 50 % of control
dose: 5.0 mg/kg/injection, vehicle: saline
  T/C: 71 % of control
dose: 10.0 mg/kg/injection, vehicle: carboxymethylcellulose (CMC)
  T/C: 23 % of control
[15]
  T/C: 34 % of control
dose: 10.0 mg/kg/injection, vehicle: saline
  T/C: 66 % of control
[16]
  T/C: 34 % of control
dose: 40.0 mg/kg/injection, vehicle: carboxymethylcellulose (CMC)
  T/C: 2 % of control
dose: 40.0 mg/kg/injection, vehicle: methylcellulose (MC)
  T/C: 23 % of control
dose: 80.0 mg/kg/injection, vehicle: methylcellulose (MC)
  T/C: 4 % of control

## Nc1nc(SCc2ccncc2)c2[nH]cnc2n1
dose: 1.25 mg/kg/injection, vehicle: methylcellulose (MC)
  T/C: 71 % of control
dose: 2.5 mg/kg/injection, vehicle: methylcellulose (MC)
  T/C: 41 % of control
dose: 5.0 mg/kg/injection, vehicle: methylcellulose (MC)
  T/C: 31 % of control
[15]
  T/C: 9 % of control and 12 % of control
[16]
  T/C: 3 % of control

## O=P1(N(CCF)CCF)NCCCO1 (configuration not stated)
dose: 3.75 mg/kg/injection, vehicle: saline
  T/C: 62 % of control
dose: 7.5 mg/kg/injection, vehicle: saline
  T/C: 79 % of control
dose: 15.0 mg/kg/injection, vehicle: saline
  T/C: 26 % of control

## CCc1c(Cl)nc(N)nc1Nc1ccccc1C
dose: 15.0 mg/kg/injection, vehicle: methylcellulose (MC)
  T/C: 115 % of control
dose: 62.0 mg/kg/injection, vehicle: methylcellulose (MC)
  T/C: 88 % of control
[17]
  T/C: 114 % of control
dose: 250.0 mg/kg/injection, vehicle: methylcellulose (MC)
  T/C: 94 % of control

## Nc1ccccc1N
[13]
  T/C: 80 % of control
[14]
  T/C: 40 % of control
[17]
  T/C: 55 % of control

## CCOC=Nc1c(N)ncnc1F
[3]
  T/C: 92 % of control
[10]
  T/C: 89 % of control
[4]
  T/C: 57 % of control
[12]
  T/C: 55 % of control
